Measurements: patent US5110798A, “Purine derivatives having pharmacological action” (Co Pharma Corporation S.r.l., priority 1987, dated 1992)

Test system: neurokinin receptors such as NK-P, NK-A and NK-B
Details: several in vitro models

For `CSCC[C@H](NC(=O)[C@H](CC(C)C)NC(=O)CNC(=O)OCCCCCn1cnc2c(=O)[nH]cnc21)C(=O)O` [Example 3], the neurokinin-like activity was “showed neurokinin-like activity”.
